We go through nine molecules from EPA's ToxValDB 9.5.

Values joined by “and” are separate entries in the source; they are usually repeats but may differ in a detail not shown here. Identical values can stand only once.

One data set concerns Bacteria. Conditions: In vitro / microbiological; Growth inhibition.
In data set [1] the test system is Mus musculus. Kind of data set: LD100; higher = less toxic. Conditions: acute; oral; TAC:SWfBr.
Data set [2] concerns Rattus norvegicus. Conditions: for LD50: acute.
For data set [3], the system named is Mus musculus. Conditions: subchronic; duration: 13 weeks; oral; gavage; B6C3F1.
For data set [4], the system named is Rattus norvegicus. Conditions: subchronic, oral, gavage, M/F.
Data set [5] deals with Mus musculus. Kind of data set: LD0; higher = less toxic. Conditions: acute; injection; Intraperitoneal.
For another data set, the system named is Oryctolagus sp. Conditions: acute, dermal.
The test system of data set [6] is Rattus norvegicus. Kind of data set: LC0; higher = less toxic. Conditions: acute; inhalation.
Data set [7] concerns Cavia porcellus. Conditions: chronic; oral; M/F; Guinea Pig; increased relative liver weight.
The subject of data set [8] is Rattus norvegicus. Conditions: developmental, oral, gavage, M, Wistar, generation: F1.
Data set [9] has as its system Rattus norvegicus. Conditions: Hershberger, duration: 10 days, oral, gavage, active + Antiandrogenic + anti-androgenic + significant increase in liver wt at 100 and greater / significant decrease in AST and increase ….
For data set [10], the system named is Rattus norvegicus. Conditions: M/F.
The subject of data set [11] is Mus musculus. Conditions: developmental; duration: 20 days; oral; gavage; F; CD1; developmental.
In another data set the test system is Chalcophaps sp. Conditions: oral.
In data set [12] the test system is Mus musculus. Conditions: repeat dose other; oral.
For data set [13], the system named is Cavia porcellus. Conditions: subchronic; duration: 90 days; oral; M/F; Guinea Pig; ototoxicity.
The test system of the next data set is Mouse, Rat. Conditions: subchronic; duration: 90 days; inhalation; intermittent; Adrenal: Lesions + Blood: Hematological effects + Kidney: Lesions + Liver: Lesions.
The next data set deals with Homo sapiens. Kind of data set: LD100; higher = less toxic. Conditions: acute; oral.
For the next data set, the system named is Monkey. Conditions: chronic; duration: 5 years; inhalation; M/F; Rhesus; respiratory.
The next data set has as its system Canidae. Conditions: subchronic, duration: 5 weeks, inhalation, unknown, renal.
Another data set deals with Anatidae. Conditions: oral.
Setting [14] is: subchronic, duration: 13 weeks, oral, gavage, Fischer 344.

Take `CN[C@@H]1[C@@H](O[C@H]2O[C@H](CO)[C@@H](N)[C@H](O)[C@H]2O)O[C@H]2C[C@@H](N)[C@@H](O[C@H]3[C@H](O)[C@@H](O)[C@H](N)C[C@@H]3N)O[C@@H]2[C@@H]1O` [Apramycin]: the NOAEC with Bacteria was found to be 8.3 µg/mL.

`C[N+](C)(C)Cc1ccccc1.[Cl-]` [Benzyltrimethylammonium chloride] registered an LD100 in the data set on Mus musculus [1] of 1600 mg/kg. Besides, in the data set with Rattus norvegicus [2] (oral, gavage, Fischer 344), the LD50 turned out to be 180 mg/kg. Besides, the NOAEL in the data set with Rattus norvegicus [2] (short-term, duration: 28 days, oral, Crj:CD) was determined as 30 mg/kg-day; in the data set with Rattus norvegicus [2] (short-term, duration: 28 days, oral, F, Crj:CD), 60 mg/kg-day; in the data set with Rattus norvegicus [2] (setting [14]) it was 25 mg/kg-day; with Mus musculus [3], 25 mg/kg-day. Besides, in the data set on Rattus norvegicus [4] (Fischer 344, Deaths + Clinical Observation: Nasal and eye discharge Lacrimation Salivation Tremors + Functional Observational Battery: Lacrimation or …), the NOEL is < 12.5 mg/kg-day.

Consider `CCCCC(CC)COP(=O)(O)OCC(CC)CCCC` (centres undefined) [Bis(2-ethylhexyl) phosphate], for which, in the data set on Mus musculus [5], the LD0 amounted to 63 mg/kg. Also, the LD50 was ≥ 50 mg/kg and ≤ 100 mg/kg in the data set on Rattus norvegicus [2] (injection, Intraperitoneal); 4740 mg/kg in the data set on Rattus norvegicus [2] (oral); 1400 mg/kg in the data set on Rattus norvegicus [2] (oral, gavage, Wistar); 1200 mg/kg in the data set on Oryctolagus sp.; > 2000 mg/kg in the data set on Oryctolagus sp. (occlusive, New Zealand).

`O=C(O)CCl` [Chloroacetic acid]: the LC0 with Rattus norvegicus [6] was 0.005 mg/L. Moreover, the NOAEL is 25 mg/kg-day with Rattus norvegicus [2] (chronic, duration: 208 days, oral, diet, M, Wistar); 30 mg/kg-day in the data set with Rattus norvegicus [2] (setting [14]); 100 mg/kg-day in the data set with Mus musculus [3]. For the same molecule, the NOEL with Rattus norvegicus [4] (duration: 13 weeks, Fischer 344, Deaths + Body Weight Changes: decrease + Blood Chemistry: Ch E decrease, Ca decrease, TP decrease + Absolute Organ Weight: Heart decrease, …) is < 30 mg/kg-day.

For `CCCCC(CC)COC(=O)c1ccccc1C(=O)OCC(CC)CCCC` (centres undefined) [Di(2-ethylhexyl) phthalate], the LOAEL in the data set with Cavia porcellus [7] turned out to be 19 mg/kg-day; in the data set with Rattus norvegicus [10] (developmental, duration: 9 weeks, inhalation, whole body, Wistar, developmental), 4.79 mg/m3; in the data set on Rattus norvegicus [10] (developmental, duration: 12 days, oral, gavage, Wistar, developmental) it was 1 mg/kg-day; in the data set with Mus musculus [11] it was 0.04 mg/kg-day; with Mus musculus [12] it was 183 mg/kg-day. Further, the LOEL with Rattus norvegicus [8] (F1: AGD (mm)) was 405 mg/kg-day; with Rattus norvegicus [9] (Sprague-Dawley), 300 mg/kg-day and 100 mg/kg-day; with Rattus norvegicus [9] (Wistar), 300 mg/kg-day and 200 mg/kg-day. Moreover, the NOEL in the data set on Rattus norvegicus [8] (F1: AGD (mm)) came out at 135 mg/kg-day; in the data set on Rattus norvegicus [8] (F1: Hypospadias (% litters affected) + F1: Hypospadias (litters affected incidence)), 405 mg/kg-day; with Rattus norvegicus [9] (Wistar), 100 mg/kg-day. Moreover, the NOAEL with Chalcophaps sp. came out at 1.1 mg/kg-day; with Mus musculus [12], 18.3 mg/kg-day.

In turn, `NC[C@@H]1O[C@H](O[C@H]2[C@@H](O)[C@H](O[C@@H]3[C@@H](O)[C@H](N)C[C@H](N)[C@H]3O[C@H]3O[C@H](CN)[C@@H](O)[C@H](O)[C@H]3N)O[C@@H]2CO)[C@H](N)[C@@H](O)[C@@H]1O` [Neomycin] displayed an NOEL with Cavia porcellus [13] of 6 mg/kg-day.

As for `O=[N+]([O-])c1ccccc1` [Nitrobenzene], the LOAEL was 25.2 mg/m3 with Rattus norvegicus [10] (subchronic, duration: 90 days, inhalation, F344 / Sprague-Dawley, hematological) and 25 mg/m3 in the data set with Mouse, Rat. The NOEL in the data set on Rattus norvegicus [4] (Fischer 344, Deaths + Body Weight Changes: decrease + Food Consumption: decrease + Hematology: RBC decrease, WBC increase, , Hgb decrease, , Hct decrease…) was < 5 mg/kg-day; with Rattus norvegicus [4] (Sprague-Dawley, Deaths + Clinical Observation: Piloerection, salivation, emacation Anemia, torticollis, rotating movement, abnormal gait + Body Weight …), < 20 mg/kg-day.

Consider `CCCCCCCCCCCCCCCCCC(=O)O` [Octadecanoic acid], for which the LD100 in the data set with Homo sapiens was found to be 14300 mg/kg. Besides, the LD50 with Rattus norvegicus [2] (oral) was found to be 4600 mg/kg.

Turning to `[U]` [Uranium], the LOAEL with Monkey was 5.1 mg/m3; with Rattus norvegicus [10] (chronic, duration: 91 days, oral, drinking water, Sprague-Dawley, renal), 0.06 mg/kg-day; in the data set with Canidae (not reported) it was 0.15 mg/m3. In addition, the NOAEL is 1.1 mg/m3 in the data set on Canidae (unspecified) and 16 mg/kg-day with Anatidae.

For orientation: LD50 means the dose at which mortality reaches 50%. One may read the NOAEL as the highest dose or exposure tested at which no adverse effect was seen. In general, LOAEL refers to the lowest dose or exposure tested at which an adverse effect was seen.
